In US20260191196A1, “COMPOSITIONS AND METHODS FOR IMPROVING SOIL MICROBIAL POPULATIONS” (SYNGENTA CROP PROTECTION AG, priority 2022, published 2026):

Key:
[1] = system: arbuscular mycorrhizae fungi; assay: Mycorrhization in soybean roots after seed treatment; format: in vivo
Method: Soybeans of variety Toliman were treated with 0.15 mg ai/seed of cyclobutrifluram and analogues, and planted in 1.5 L pots of 0-3 mm sieved soil. The seeds were inoculated with Bradyrhizobium japonicum using a commercially available product for soybeans.
In a first series, for each active ingredient tested, 15 replicate pots were sowed. In each pot, 3 seeds were sowed. After germination, 2 seedling was removed from each pot to a final number of 1 plant per pot. Each pot was inoculated with a small amount of a mycorrhizal inoculant (Blend A, commercially available from Symbiom, Czech Republic). The plants were grown in a greenhouse for 81 days under the following conditions: Humidity at 45-64%, Temperature of 22° C. to 24° C., in a 16/8 hour day/night cycle. In a further test series, Soybeans seeds treated as outlined above were then planted in 1 Lpots of 0-3 mm sieved soil. For each active ingredient, 8 replicate pots were sowed, whereby in each pot, 3 seeds were sowed. After germination, 2 seedlings were removed from each pot to a final number of 1 plant per pot.
The plants were then grown in a growth chamber for 42 days with the following conditions: Temperature of 20° C. and with a 12/12 hour day/night.
After harvest, the percent mycorrhization was quantified using the methods of McGonigle et al. (T. P. McGONIGLE, M. H. MILLER and D. G. EVANS et al., “A new method which gives an objective measure of colonization of roots by vesicular-arbuscular mycorrhizal fungi”. New Phytol. Vol. 115 (3): 495-501.).

[2] = system: soil bacterial community; assay: Plant associated soil microbiome: bacterial community by 16S rRNA gene amplicon sequencing; format: in vivo, tomato plants
Method: To detect microbial community modifications in the soil microbiome associated with the cyclobutrifluram treatment against root knot nematodes, PCR amplification and successive high-throughput sequencing of bacterial and fungal taxonomical marker genes (the small-subunit ribosomal RNA gene (16S) and the ribosomal internal transcribed spacers (ITS) respectively) were performed on plant-associated soil samples.
Bacterial ASVs were detected by 16SrRNA gene amplicon sequencing with taxonomy assignment at ASV level. The relative abundance in Control and Cyclobutrifluram treated samples and, when statistically significative (Deseq2, p=0.1), the relative abundance variation is reported in Table 1a, reporting bacterial ASVs detected by 16S rRNA gene amplicon sequencing with taxonomy assignment at ASV level. Here is reported the relative abundance in Control and Cyclobutrifluram treated samples and, when statistically significative (Deseq2, p=0.1), the relative abundance variation. Shown are the bacteria with an abundance of above 0.01%.

[3] = Cyclobutrifluram treated plant-associated soil

Structure (SMILES): O=C(N[C@@H]1CC[C@@H]1c1ccc(Cl)cc1Cl)c1cccnc1C(F)(F)F (racemic) [Cyclobutrifluram, cyclobutrifluram]
- response vs control in vivo at 0.15 mg/seed ([1]; Glycine max, soybean variety Toliman, seed treatment 0.15 mg ai/seed, mycorrhizal inoculant Blend A, relative to control, read-out: [%] arbuscular mycorrhizae fungi colonization vs. control.): 115%
- level of mycorrhizal colonization in soybean roots (in words) ([1]; compared to control): higher colonization
- relative abundance variation vs Control, Acidobacteria-6 (ASV, Class) ([2]; 1st Acidobacteria-6 ASV (r9), Deseq2, p=0.1): +0.050%
- relative abundance variation vs Control, Acidobacteria-6 (ASV, Class) ([2]; 2nd Acidobacteria-6 ASV (r16), Deseq2, p=0.1): +0.051%
- relative abundance variation vs Control, Acidobacteria-6 (ASV, Class) ([2]; 3rd Acidobacteria-6 ASV (r18), Deseq2, p=0.1): +0.027%
- relative abundance variation vs Control, Acidobacteria-6 (ASV, Class) ([2]; 4th Acidobacteria-6 ASV (r19), Deseq2, p=0.1): +0.028%
- relative abundance variation vs Control, Acidobacteria-6 (ASV, Class) ([2]; 5th Acidobacteria-6 ASV (r22), Deseq2, p=0.1): +0.071%
- relative abundance variation vs Control, Acidobacteria-6 (ASV, Class) ([2]; 6th Acidobacteria-6 ASV (r24), Deseq2, p=0.1): +0.030%
- modifications in the bacterial diversity ([2]; 16S rRNA gene amplicon sequencing): no modifications
- Relative abundance, Gaiella (ASV, Genus) [2, 3]: 0.065%
- Relative abundance, Gemmatimonadetes (ASV, Class) [2, 3]: 0.071%
- Relative abundance, Microlunatus (ASV, Genus) [2, 3]: 0.032%
- Relative abundance, Myxococcales (ASV, Order) [2, 3]: 0.033%
- Relative abundance, PK29 (ASV, Order) [2, 3]: 0.021%
- Relative abundance, Planctomyces (ASV, Genus) [2, 3]: 0.016%
- Relative abundance, Rhizobiales (ASV, Order) [2, 3]: 0.025%
- Relative abundance, Streptosporangiaceae (ASV, Family) [2, 3]: 0.020%
- Relative abundance, Acidobacteria-6 (ASV, Class) ([2]; Cyclobutrifluram treated plant-associated soil, 1st Acidobacteria-6 ASV (r9)): 0.050%
- Relative abundance, Acidobacteria-6 (ASV, Class) ([2]; Cyclobutrifluram treated plant-associated soil, 2nd Acidobacteria-6 ASV (r16)): 0.051%
- Relative abundance, Acidobacteria-6 (ASV, Class) ([2]; Cyclobutrifluram treated plant-associated soil, 3rd Acidobacteria-6 ASV (r18)): 0.027%
- Relative abundance, Acidobacteria-6 (ASV, Class) ([2]; Cyclobutrifluram treated plant-associated soil, 4th Acidobacteria-6 ASV (r19)): 0.028%
- Relative abundance, Acidobacteria-6 (ASV, Class) ([2]; Cyclobutrifluram treated plant-associated soil, 5th Acidobacteria-6 ASV (r22)): 0.084%
- Relative abundance, Acidobacteria-6 (ASV, Class) ([2]; Cyclobutrifluram treated plant-associated soil, 6th Acidobacteria-6 ASV (r24)): 0.030%
- relative abundance variation vs Control, Gaiella (ASV, Genus) ([2]; Deseq2, p=0.1): +0.065%
- relative abundance variation vs Control, Gemmatimonadetes (ASV, Class) ([2]; Deseq2, p=0.1): +0.071%
- relative abundance variation vs Control, Microlunatus (ASV, Genus) ([2]; Deseq2, p=0.1): +0.032%
- relative abundance variation vs Control, Myxococcales (ASV, Order) ([2]; Deseq2, p=0.1): +0.033%
- relative abundance variation vs Control, PK29 (ASV, Order) ([2]; Deseq2, p=0.1): +0.021%
- relative abundance variation vs Control, Planctomyces (ASV, Genus) ([2]; Deseq2, p=0.1): +0.016%
- relative abundance variation vs Control, Rhizobiales (ASV, Order) ([2]; Deseq2, p=0.1): +0.025%
- relative abundance variation vs Control, Streptosporangiaceae (ASV, Family) ([2]; Deseq2, p=0.1): +0.020%
- modifications in the bacterial community at genus level ([2]; differential abundance analysis, Cyclobutrifluram treatment): no significant modifications
- relative abundance of the 14 ASVs found to be significantly changing ([2]; following cyclobutrifluram treatment): < 0.1%
